Values after ≈ are worked out from the molar mass of the structure shown.
Columns and labels:
Aspergillus fumigatus [1] = experiment: Antifungal activity against Aspergillus fumigatus NBRC 4400 by microdilution method; type: functional
Nakaseomyces glabratus [2] = experiment: Antifungal activity against Candida glabrata WT-5; type: functional
Candida parapsilosis [3] = experiment: Antifungal activity against Candida parapsilosis; type: functional; details: Lodderomyces parapsilosis
[4] = system: Trichophyton mentagrophytes; experiment: Antifungal activity against Trichophyton mentagrophytes IFM 46027 by microdilution method; type: functional
Nakaseomyces glabratus [5] = experiment: Antifungal activity against Candida glabrata 587 by microdilution method; type: functional
Nakaseomyces glabratus [6] = experiment: Antifungal activity against Candida glabrata 507 by microdilution method; type: functional
Candida albicans [7] = experiment: Antifungal activity against Candida albicans ATCC 10231 by microdilution method; type: functional
Nakaseomyces glabratus [8] = experiment: Antifungal activity against Candida glabrata 510 by microdilution method; type: functional
Trichophyton rubrum [9] = experiment: Antifungal activity against Trichophyton rubrum NBRC 5467 by microdilution method; type: functional
Candida albicans [10] = experiment: Antifungal activity against Candida albicans NBRC 1385 by microdilution method; type: functional
Nakaseomyces glabratus [11] = experiment: Antifungal activity against Candida glabrata 493 by microdilution method; type: functional
Candida albicans [12] = experiment: Antifungal activity against Candida albicans 498 by microdilution method; type: functional
Nakaseomyces glabratus [13] = experiment: Antifungal activity against Candida glabrata 482 by microdilution method; type: functional
Candida tropicalis [14] = experiment: Antifungal activity against Candida tropicalis 166 by microdilution method; type: functional
Pichia kudriavzevii [15] = experiment: Antifungal activity against Candida krusei 168 by microdilution method; type: functional
Candida parapsilosis [16] = experiment: Antifungal activity against Candida parapsilosis 90/2224; type: functional; details: Lodderomyces parapsilosis
Pichia kudriavzevii [17] = experiment: Antifungal activity against Candida krusei CK25; type: functional
Pichia kudriavzevii [18] = experiment: Antifungal activity against Candida krusei ATCC 6258; type: functional
Pichia kudriavzevii [19] = experiment: Antifungal activity against Candida krusei; type: functional
Candida parapsilosis [20] = experiment: Antifungal activity against Candida parapsilosis ATCC 22014; type: functional; details: Lodderomyces parapsilosis
Candida albicans [21] = experiment: Antifungal activity against Candida albicans 53 by microdilution method; type: functional
Candida albicans [22] = experiment: Antifungal activity against Candida albicans 501 by microdilution method; type: functional
Candida albicans [23] = experiment: Antifungal activity against Candida albicans; type: functional, organism-based
Candida albicans [24] = experiment: Antifungal activity against FLC-resistant Candida albicans; type: functional
Candida albicans [25] = experiment: Antibiofilm activity against Candida albicans by CSLM based method; type: functional
Candida tropicalis [26] = experiment: Antibiofilm activity against Candida tropicalis by CSLM based method; type: functional
Nakaseomyces glabratus [27] = experiment: Antifungal activity against Candida glabrata ATCC 90030; type: functional
Nakaseomyces glabratus [28] = experiment: Antifungal activity against Candida glabrata 531 by microdilution method; type: functional
Candida parapsilosis [29] = experiment: Antifungal activity against Candida parapsilosis 96 by microdilution method; type: functional; details: Lodderomyces parapsilosis
Nakaseomyces glabratus [30] = experiment: Antifungal activity against Candida glabrata; type: functional
Candida albicans [31] = experiment: Antifungal activity against Candida albicans SC 5314 after 48 hrs by checkerboard method; type: functional; details: SC 5314, 48 h
Nakaseomyces glabratus [32] = experiment: Antifungal activity against Candida glabrata after 48 hrs by checkerboard method; type: functional
Candida albicans [33] = experiment: Antifungal activity against Candida albicans clinical isolates after 48 hrs by checkerboard method; type: functional
Candida tropicalis [34] = experiment: Antifungal activity against FLC-resistant Candida tropicalis in presence of FLC; type: functional
Candida albicans [35] = experiment: Antifungal activity against Candida albicans ATCC 90028 after 18 hrs by two-fold microdilution method; type: functional; details: ATCC 90028, 18 h
Pichia kudriavzevii [36] = experiment: Antifungal activity against Candida krusei ATCC 6258 after 18 hrs by two-fold microdilution method; type: functional; details: ATCC 6258, 18 h
Nakaseomyces glabratus [37] = experiment: Antifungal activity against Candida glabrata ATCC 90030 after 18 hrs by two-fold microdilution method; type: functional; details: ATCC 90030, 18 h
Candida parapsilosis [38] = experiment: Antifungal activity against Candida parapsilosis ATCC 22019 after 18 hrs by two-fold microdilution method; type: functional; details: Lodderomyces parapsilosis, ATCC 22019, 18 h
Candida tropicalis [39] = experiment: Antifungal activity against FLC-resistant Candida tropicalis; type: functional
Candida albicans [40] = experiment: Antifungal activity against Candida albicans ATCC 44859 after 24 to 48 hrs; type: functional
Trichophyton rubrum [41] = experiment: Antifungal activity against Trichophyton rubrum deltaTruMDR2 by CLSI-based microdilution method; type: functional
Trichophyton rubrum [42] = experiment: Antifungal activity against Trichophyton rubrum ATCC MYA3108 by CLSI-based microdilution method; type: functional
[43] = Inhibition of fatty acid synthase in Trichophyton rubrum ATCC MYA3108
Aspergillus fumigatus [44] = experiment: Antifungal activity against Aspergillus fumigatus; type: functional
Cryptococcus neoformans [45] = experiment: Antifungal activity against Cryptococcus neoformans after 48 hrs by broth micro dilution method; type: functional
Candida parapsilosis [46] = experiment: Antifungal activity against Candida parapsilosis after 48 hrs by broth micro dilution method; type: functional; details: Lodderomyces parapsilosis
Candida albicans [47] = experiment: Antifungal activity against Candida albicans after 48 hrs by broth micro dilution method; type: functional
Nannizzia gypsea = experiment: Antifungal activity against Microsporum gypseum after 5 days; type: functional; details: 120 h
Candida albicans [48] = experiment: Antifungal activity against Candida albicans ATCC 10231 after 48 hrs by CLSI-based broth microdilution method; type: functional; details: ATCC 10231, 48 h
Saccharomyces cerevisiae = experiment: Antifungal activity against Saccharomyces cerevisiae ATCC 9763 after 48 hrs by CLSI-based broth microdilution method; type: functional; details: ATCC 9763, 48 h
Trichophyton tonsurans = experiment: Antifungal activity against Trichophyton tonsurans after 5 days; type: functional; details: 120 h
Candida tropicalis [49] = experiment: Antifungal activity against Candida tropicalis CCC 131-2000 after 48 hrs by CLSI-based broth microdilution method; type: functional; details: CCC 131-2000, 48 h
Cryptococcus neoformans [50] = experiment: Antifungal activity against Cryptococcus neoformans ATCC 32264 after 48 hrs by CLSI-based broth microdilution method; type: functional; details: ATCC 32264, 48 h
Trichophyton rubrum [51] = experiment: Antifungal activity against Trichophyton rubrum after 5 days; type: functional; details: 120 h
[52] = system: Trichophyton mentagrophytes; experiment: Antifungal activity against Trichophyton mentagrophytes after 5 days; type: functional; details: 120 h
Cryptococcus gattii = experiment: Antifungal activity against Cryptococcus gattii after 72 hrs; type: functional, Cryptococcus gattii VGI
Cryptococcus neoformans [53] = experiment: Antifungal activity against Cryptococcus neoformans after 72 hrs; type: functional

## O=c1cc(-c2ccccc2)oc2cc(O)c(O)c(O)c12 [BAICALEIN]
Aspergillus fumigatus [1]
  MIC: 230 µM (≈ 62.2 µg/mL)
Nakaseomyces glabratus [2]
  MIC: 52.7 µg/mL (≈ 195 µM)
Candida parapsilosis [3]
  MIC: 5.4 µg/mL (≈ 20 µM)
[4]
  MIC: 60 µM (≈ 16.2 µg/mL)
Nakaseomyces glabratus [5]
  MIC: 1.9 µg/mL (≈ 7.03 µM)
Nakaseomyces glabratus [6]
  MIC: 1.9 µg/mL (≈ 7.03 µM)
Candida albicans [7]
  MIC: 10.4 µg/mL (≈ 38.5 µM)
Nakaseomyces glabratus [8]
  MIC: 1.9 µg/mL (≈ 7.03 µM)
Trichophyton rubrum [9]
  MIC: 120 µM (≈ 32.4 µg/mL)
Candida albicans [10]
  MIC: 30 µM (≈ 8.11 µg/mL)
Nakaseomyces glabratus [11]
  MIC: 1.9 µg/mL (≈ 7.03 µM)
Candida albicans [12]
  MIC: 10.4 µg/mL (≈ 38.5 µM)
Nakaseomyces glabratus [13]
  MIC: 1.9 µg/mL (≈ 7.03 µM)
Candida tropicalis [14]
  MIC: 10.4 µg/mL (≈ 38.5 µM)
  MIC50: 13 to 104 µg/mL (≈ 48.1 to 385 µM)
Pichia kudriavzevii [15]
  MIC: 21 µg/mL (≈ 77.7 µM)
Candida parapsilosis [16]
  MIC: 5.4 µg/mL (≈ 20 µM)
Pichia kudriavzevii [17]
  MIC: 2.7 µg/mL (≈ 9.99 µM)
Pichia kudriavzevii [18]
  MIC: 2.7 µg/mL (≈ 9.99 µM)
Pichia kudriavzevii [19]
  MIC: 2.7 µg/mL (≈ 9.99 µM)
Candida parapsilosis [20]
  MIC: 5.4 µg/mL (≈ 20 µM)
Candida albicans [21]
  MIC: 10.4 µg/mL (≈ 38.5 µM)
Candida albicans [22]
  MIC: 10.4 µg/mL (≈ 38.5 µM)
Candida albicans [23]
  MIC: 5.4 µg/mL (≈ 20 µM)
Candida albicans [24]
  MIC: 13 to 26 µg/mL (≈ 48.1 to 96.2 µM)
Candida albicans [25]
  MIC50: 4 to 32 µg/mL (≈ 14.8 to 118 µM)
Candida tropicalis [26]
  MIC: 52 to 104 µg/mL (≈ 192 to 385 µM)
Nakaseomyces glabratus [27]
  MIC: 52.7 µg/mL (≈ 195 µM)
Nakaseomyces glabratus [28]
  MIC: 1.9 µg/mL (≈ 7.03 µM)
Candida parapsilosis [29]
  MIC: 5.2 to 13 µg/mL (≈ 19.2 to 48.1 µM)
  MIC50: 13 to 104 µg/mL (≈ 48.1 to 385 µM)
Nakaseomyces glabratus [30]
  MIC: 2.7 µg/mL (≈ 9.99 µM)

## O=C(O)[C@H]1O[C@@H](Oc2cc3oc(-c4ccccc4)cc(=O)c3c(O)c2O)[C@H](O)[C@@H](O)[C@@H]1O [BAICALIN]
Candida albicans [31]
  MIC: 500 µg/mL
Nakaseomyces glabratus [32]
  MIC: 250 µg/mL
Candida albicans [33]
  MIC: 500 µg/mL

## Oc1cc(O)c2c(c1)O[C@H](c1ccc(O)c(O)c1)[C@@H](O)C2 [CIANIDANOL]
Candida tropicalis [34]
  MIC: ≤ 16 µg/mL

## CC1(C)C=Cc2c(cc(O)c3c(=O)c(-c4ccc(O)cc4)coc23)O1 [DERRONE]
Candida albicans [35]
  MIC: 7.81 µg/mL (≈ 23.2 µM)
Pichia kudriavzevii [36]
  MIC: 7.81 µg/mL (≈ 23.2 µM)
Nakaseomyces glabratus [37]
  MIC: 7.81 µg/mL (≈ 23.2 µM)
Candida parapsilosis [38]
  MIC: 7.81 µg/mL (≈ 23.2 µM)

## O=C(O[C@@H]1Cc2c(O)cc(O)cc2O[C@@H]1c1cc(O)c(O)c(O)c1)c1cc(O)c(O)c(O)c1 [EPIGALOCATECHIN GALLATE]
Candida tropicalis [39]
  MIC: ≤ 1 µg/mL

## OC(Cn1cncn1)(Cn1cncn1)c1ccc(F)cc1F [FLUCONAZOLE]
Candida albicans [40]
  MIC: 10.2 µM (≈ 3.12 µg/mL)
Trichophyton rubrum [41]
  MIC: 63 µg/mL (≈ 206 µM)
Trichophyton rubrum [42]
  MIC: 63 µg/mL (≈ 206 µM)
[43]
  IC50: 68.23 µg/mL (≈ 223 µM)
Candida albicans [23]
  MIC: 5.1 to 62.5 µg/mL (≈ 16.7 to 204 µM)
Aspergillus fumigatus [44]
  MIC: 125 µg/mL (≈ 408 µM)

## O=c1c(O[C@@H]2O[C@H](CO)[C@H](O)[C@H](O)[C@H]2O)c(-c2ccc(O)c(O)c2)oc2cc(O)cc(O)c12 [HYPEROSIDE]
Cryptococcus neoformans [45]
  MIC: 128 µg/mL (≈ 276 µM)
Candida parapsilosis [46]
  MIC: 128 µg/mL (≈ 276 µM)
Candida albicans [47]
  MIC: 256 µg/mL (≈ 551 µM)

## O=c1c(O)c(-c2cc(O)c(O)c(O)c2)oc2cc(O)cc(O)c12 [MYRICETIN]
Nakaseomyces glabratus [5]
  MIC: 3.9 to 15.7 µg/mL (≈ 12.3 to 49.3 µM)
Nakaseomyces glabratus [6]
  MIC: 3.9 to 15.7 µg/mL (≈ 12.3 to 49.3 µM)
Candida albicans [7]
  MIC: 16 to 64 µg/mL (≈ 50.3 to 201 µM)
Nannizzia gypsea
  MIC: 4 to 128 µg/mL (≈ 12.6 to 402 µM)
Nakaseomyces glabratus [8]
  MIC: 3.9 to 15.7 µg/mL (≈ 12.3 to 49.3 µM)
Nakaseomyces glabratus [11]
  MIC: 3.9 to 15.7 µg/mL (≈ 12.3 to 49.3 µM)
Candida albicans [12]
  MIC: 16 to 64 µg/mL (≈ 50.3 to 201 µM)
Candida albicans [48]
  MIC: 31.2 µg/mL (≈ 98 µM)
Nakaseomyces glabratus [13]
  MIC: 3.9 to 15.7 µg/mL (≈ 12.3 to 49.3 µM)
Candida tropicalis [14]
  MIC: 64 µg/mL (≈ 201 µM)
Pichia kudriavzevii [15]
  MIC: 64 µg/mL (≈ 201 µM)
Saccharomyces cerevisiae
  MIC: 31.2 µg/mL (≈ 98 µM)
Trichophyton tonsurans
  MIC: 4 to 128 µg/mL (≈ 12.6 to 402 µM)
Candida albicans [21]
  MIC: 16 to 64 µg/mL (≈ 50.3 to 201 µM)
Candida albicans [22]
  MIC: 16 to 64 µg/mL (≈ 50.3 to 201 µM)
Candida tropicalis [49]
  MIC: 31.2 µg/mL (≈ 98 µM)
Cryptococcus neoformans [50]
  MIC: 31.2 µg/mL (≈ 98 µM)
Trichophyton rubrum [51]
  MIC: 4 to 128 µg/mL (≈ 12.6 to 402 µM)
[52]
  MIC: 4 to 128 µg/mL (≈ 12.6 to 402 µM)
Nakaseomyces glabratus [27]
  MIC: 6.79 µg/mL (≈ 21.3 µM)
Nakaseomyces glabratus [28]
  MIC: 3.9 to 15.7 µg/mL (≈ 12.3 to 49.3 µM)
Candida parapsilosis [29]
  MIC: 16 µg/mL (≈ 50.3 µM)
Cryptococcus gattii
  MIC: 128 µg/mL (≈ 402 µM)
Cryptococcus neoformans [53]
  MIC: 8 to 128 µg/mL (≈ 25.1 to 402 µM)

## C[C@@H]1O[C@@H](OC[C@H]2O[C@@H](Oc3c(-c4ccc(O)c(O)c4)oc4cc(O)cc(O)c4c3=O)[C@H](O)[C@@H](O)[C@@H]2O)[C@H](O)[C@H](O)[C@H]1O [RUTIN]
Cryptococcus neoformans [45]
  MIC: > 256 µg/mL
Candida parapsilosis [46]
  MIC: > 256 µg/mL
Candida albicans [47]
  MIC: > 256 µg/mL

From ChEMBL document CHEMBL4311957, “Recent advances in natural antifungal flavonoids and their derivatives” (Bioorg Med Chem Lett, 2019)
